From patent US6692927B2, “Bax degradation involvement in tumor survival and progression” (University of South Florida, priority 2000, dated 2004)
Where a SMILES comes first, the peptide text is derived from it. [ ]: non-standard residue; d: D form. The star is where a group is joined. Nva = CCC[C@H](N)C(=O)O; Cbz = O=C(OCc1ccccc1)*

Experiments:
[1] = system: Bax degradation activity; experiment: cell-free Bax degradation assay, inhibitor added to MCF-7 cell extract; assay type: biochemical, human; settings: 10-minute preincubation of MCF-7 cell extract with inhibitor (100 mM per FIG. 9C legend), 37° C., 4 h
Protocol: (§1) FIGS. 9A-9F show Bax degradation depends on ubiquitination, proteasome and ATP. (FIG. 9A) Jurkat cells (0 h) were treated with either 50 μM LLnV or 10 μM lactacystin, followed by preparation of Bax immunoprecipitates (with clone 6A7), which were immunoblotted with an ubiquitin antibody. Positions of putative ubiquitinated Bax proteins (p47, p55) are indicated at left. The nature of the ˜30 kDa and ˜84 kDa remains unclear. (FIG. 9B) The [^35S]-labeled Bax (upper) or Bcl-2 (lower) protein (1 μl) were incubated at 37° C. for 2 h with either buffer Z only (lane 1) or […] protein extract of MCF-7 cells grown exponentially (lane 2) or pretreated for 8 h with […] LLnV (lane 3). (FIG. 9C) The [^35S]-labeled Bax protein (1 μl) was incubated with either buffer Z only (lane 1) or 100 μg MCF-7 cell lysate at 37° C. for 4 h, in the presence of an indicated inhibitor (100 mM; lanes 3-8) or an equal volume of DMSO (lane 2) in buffer Z. A weak band of ˜16 kDa (indicated by an arrow) is probably an intermediate product of proteasome-mediated Bax degradation. (FIG. 9D) The proteasome in MCF-7 whole cell lysate (W lys, lane 1) was precipitated by using either ultraspin (ULS) or a proteasome subunit a6 antibody (IP). Both supernatant (lanes 2, 4) and pellet (lanes 3, 5) fractions were examined by Western blot assay using antibody to the proteasome a6 subunit (MW 33 kDa). (FIG. 9E) Bax degradation assay was performed as in FIG. 9B, with addition of buffer Z (lane 1) or 100 μg protein from MCF-7 whole cell lysate (lane 2), ultraspun supernatant (lane 3) or plus the pellet (lane 4), immunodepleted supernatant (lane 5) or plus a purified 20S proteasome ([…]; lane 6), or the purified proteasome alone (2 μg; lane 7). (FIG. 9F) Bax degradation assay was performed as in FIG. 9B, in the absence (lane 3) or presence of 10 mM ATP (lane 2) or 10 mM ATP-y-S (lane 4).
In vitro Bax Degradation Assay: Human Bax-a cDNA subcloned into pcDNA3 was a gift from Dr. Hong-gang Wang. Human full length of bcl-2-a cDNA was cloned from Jurkat T cells and subcloned into pcDNA3.1(−) as described+. Both bax and bcl-2 plasmids were used for coupled in vitro transcription/translation (Promega; Madison, Wis.) in the presence of [^35S]methionine (Amersham Pharmacia Biotech; Piscataway, N.J.). Protein extracts were prepared from either MCF-7 cells or prostate tumor tissues in buffer Y (50 mM Tris-HCl, pH 7.4, 250 mM NaCl, 1% Triton X-100, 0.1% SDS, 1 mM EDTA), and used for Bax (or Bcl-2) degradation assay. Briefly, 1 microl of [^35S]-labeled Bax (or Bcl-2) protein was incubated at 37° C. for 2-4 hours with 100-200 microg protein extract in buffer Z (50 mM Tris-HCl, pH 7.4, 5 mM MgCl2, 3 mM DTT, 10 mM ATP, 10 mM phosphocreatine, 10 microg/ml creatine phosphokinase, 10 microg/ml aprotinin, 10 microg/ml leupeptin, 10% glycerol and 2 microg/ml ubiquitin). After incubation, the samples were subjected to gel electrophoresis and autoradiography. Under the cell-free assay conditions, the calpain-mediated Bax cleavage activity was blocked by omission of calcium and addition of the protease inhibitor leupeptin (Wood et al, 1998). To deplete the proteasome, MCF-7 cell lysates were either immunoprecipitated with the 20S proteasome subunit a6 antibody or ultracentrifugated at 100,000×g for 6 hours. The proteasome-enriched pellet fraction was resuspended in buffer Y.
To further study the proteasome activity that degrades Bax protein, a cell-free Bax degradation assay was developed by using an in vitro-translated, [^35S]-labeled Bax protein as substrate (FIG. 9B, upper, lane 1). The Bax degradation activity is present in protein extracts prepared from exponentially growing MCF-7 (FIG. 9), K562, VA-13, WI-38, Jurkat T or HL-60 cells. The labeled Bax was almost completely degraded by a MCF-7 cell extract after 2 to 4 hours incubation at 37° C. (FIG. 9B, upper, and FIG. 9C, lanes 2 vs. 1). […]

[2] = system: Jurkat T cells; experiment: Western blot and Bax IP/ubiquitin blot in Jurkat T cells; assay type: cell-based, human
Protocol: FIGS. 8A-8D show proteasome inhibition accumulates Bax to mitochondria/cytoplasm and increases interaction between Bax and Bcl-2 proteins. Jurkat cells (0 h; FIG. 8A and FIG. 8B) or Jurkat cells overexpressing Bcl-2 (0 h; FIG. 8C and FIG. 8D) were treated by either 10 μM lactacystin (FIGS. 8A-8C), 50 μM LLnV (FIG. 8D), or 50 μM LLM (FIG. 8A and FIG. 8B) for the indicated hours. (FIG. 8A and FIG. 8B) Western blotting with antibodies to PARP and Bax were performed as described in FIG. 7. (FIG. 8C) Immunohistochemistry (see MATERIALS AND METHODS). Localization of Bax protein (green) and nuclei (red) are shown. (FIG. 8D) Bax immunoprecipitates, prepared by an agarose-conjugated N-20 Bax antibody, were immunoblotted first with the 6A7 Bax antibody (upper) and then reblotted with a Bcl-2 antibody (lower).
as §1, with “4). […]” for “4).”

| Compound | Bax degradation process/activity [1] | p55 and p47 levels (putative ubiquitinated Bax) ([2]; 50 μM LLnV, 8 hours) | p55 and p47 levels (putative ubiquitinated Bax) ([2]; 10 μM lactacystin, 4 hours) | Bax accumulation and PARP cleavage ([2]; 10 microM) |
| --- | --- | --- | --- | --- |
| CCC[C@@H](C=O)NC(=O)[C@H](CC(C)C)NC(=O)[C@H](CC(C)C)NC(=O)OCc1ccccc1 [LLnV] (Cbz-Leu-Leu-[Nva]-aldehyde) | blocked | significantly increased | – | – |
| CC(=O)N[C@@H](CSC(=O)[C@]1([C@@H](O)C(C)C)NC(=O)[C@H](C)[C@@H]1O)C(=O)O [lactacystin] | not | – | significantly increased | induced Bax accumulation and PARP cleavage |
